{
  "source": "patent US20220000834A1",
  "about": "“NOVEL ADMINISTRATION METHOD” (SUMITOMO DAINIPPON PHARMA CO., LTD., priority 2019, published 2022)",
  "origin": "cited, not measured here",
  "molecules": {"B1": {"name": "Sema3A: class 3 semaphorin; suppresses growth of neurite growth cone (protein, UniProt Q14563 21-771, looked up)", "Semaphorin-3A": "NYQNGKNNVPRLKLSYKEMLESNNVITFNGLANSSSYHTFLLDEERSRLYVGAKDHIFSFDLVNIKDFQKIVWPVSYTRRDECKWAGKDILKECANFIKVLKAYNQTHLYACGTGAFHPICTYIEIGHHPEDNIFKLENSHFENGRGKSPYDPKLLTASLLIDGELYSGTAADFMGRDFAIFRTLGHHHPIRTEQHDSRWLNDPKFISAHLISESDNPEDDKVYFFFRENAIDGEHSGKATHARIGQICKNDFGGHRSLVNKWTTFLKARLICSVPGPNGIDTHFDELQDVFLMNFKDPKNPVVYGVFTTSSNIFKGSAVCMYSMSDVRRVFLGPYAHRDGPNYQWVPYQGRVPYPRPGTCPSKTFGGFDSTKDLPDDVITFARSHPAMYNPVFPMNNRPIVIKTDVNYQFTQIVVDRVDAEDGQYDVMFIGTDVGTVLKVVSIPKETWYDLEEVLLEEMTVFREPTAISAMELSTKQQQLYIGSTAGVAQLPLHRCDIYGKACAECCLARDPYCAWDGSACSRYFPTAKRRTRRQDIRNGDPLTHCSDLHHDNHHGHSPEERIIYGVENSSTFLECSPKSQRALVYWQFQRRNEERKEEIRVDDHIIRTDQGLLLRSLQQKDSGNYLCHAVEHGFIQTLLKVTLEVIDTEHLEELLHKDDDGDGSKTKEMSNSMTPSQKVWYRDFMQLINHPNLNTMDEFCEQVWKRDRKQRRQRPGHTPGNSNKWKHLQENKKGRNRRTHEFERAPRSV"}},
  "key": {"[1]": {"system": "nerves in an injured part", "details": "Patent Documents 1 and 2"}, "nerve cells": {"system": "nerve cells", "details": "as low as"}},
  "data": [
    {"molecule": "CC(=O)c1cc2c(=O)c3c(C(=O)O)c(O)c(O)cc3oc2c(C(C)=O)c1-c1coc2cc(O)c(O)c(C(=O)O)c2c1=O", "note": "[compound A]", "values": [
      {"measurement": "regeneration of nerves in an injured part", "setting": "[1]", "value": "accelerates the regeneration of nerves in an injured part"}
    ]},
    {"molecule": "B1", "values": [
      {"measurement": "concentration inducing regression of nerve cells", "setting": "nerve cells", "value": 10, "unit": "pM"}
    ]}
  ]
}
